Experimental data taken from the supplement of paper PMC9663587.

Tests used:
Assay in all cases: GR value, 72 h; higher = faster growth (1 = untreated, <0 = killing);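 further: breast cancer and non-malignant breast epithelial lines, nine half-log doses, viable cells counted by Hoechst and LIVE/DEAD dye imaging versus time-zero plates and DMSO controls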
Luminespib/NVP-AUY922 = compound: CCNC(=O)c1noc(-c2cc(C(C)C)c(O)cc2O)c1-c1ccc(CN2CCOCC2)cc1 [Luminespib/NVP-AUY922]
Cediranib/AZD2171 = compound: COc1cc2c(Oc3ccc4[nH]c(C)cc4c3F)ncnc2cc1OCCCN1CCCC1 [Cediranib/AZD2171]
Torin2 = compound: C1=CC(=CC(=C1)N2C(=O)C=CC3=CN=C4C=CC(=CC4=C32)C5=CN=C(C=C5)N)C(F)(F)F [Torin2]
[1] = compound: CCC1=CN=CN=C1N2CCN(CC2)CC3=NC4=C(N3)C=C(C=C4)C(F)(F)F
[2] = compound: CCCCOc1c(C(=O)c2c(F)cc(C)cc2F)c[nH]c2nncc1-2
FMF-03-145-1 = compound: CCC(=O)Nc1ccc(C(=O)Nc2ccc(Nc3ncc4c(n3)N(C)c3ccc(C)cc3C(=O)N4C)cc2)cc1 [FMF-03-145-1]
[3] = compound: CNc1nc(-c2ccc3c(N)n[nH]c3c2)cc(N2C[C@@H](C(=O)NC3CCCCC3)CC[C@H]2C)n1
Volasertib/BI6727 = compound: CC[C@@H]1C(=O)N(C)c2cnc(Nc3ccc(C(=O)N[C@H]4CC[C@H](N5CCN(CC6CC6)CC5)CC4)cc3OC)nc2N1C(C)C [Volasertib/BI6727]
Ceritinib/LDK378 = compound: Cc1cc(Nc2ncc(Cl)c(Nc3ccccc3S(=O)(=O)C(C)C)n2)c(OC(C)C)cc1C1CCNCC1 [Ceritinib/LDK378]
[4] = compound: COc1ccc2c(c1)[C@]1(C[C@H]1c1ccc3c(/C=C/c4ccc(CN5C[C@@H](C)O[C@@H](C)C5)cc4)n[nH]c3c1)C(=O)N2
Vorinostat = compound: O=C(CCCCCCC(=O)Nc1ccccc1)NO [Vorinostat]

Q: What does the source list for AU565?
A: GR value (Luminespib/NVP-AUY922; 0.0001 µM): 0.887 GR; GR value (Luminespib/NVP-AUY922; 0.0003162 µM): 0.966 GR; GR value (Luminespib/NVP-AUY922; 0.001 µM): 0.942 GR; GR value (Luminespib/NVP-AUY922; 0.003162 µM): 0.648 GR; GR value (Luminespib/NVP-AUY922; 0.01 µM): 0.165 GR; GR value (Luminespib/NVP-AUY922; 0.03162 µM): -0.079 GR; GR value (Luminespib/NVP-AUY922; 0.1 µM): -0.156 GR; GR value (Luminespib/NVP-AUY922; 0.3162 µM): -0.214 GR; GR value (Luminespib/NVP-AUY922; 1 µM): -0.227 GR; GR value (Cediranib/AZD2171; 0.001 µM): 1.04 GR; GR value (Cediranib/AZD2171; 0.003162 µM): 0.989 GR; GR value (Cediranib/AZD2171; 0.01 µM): 1.07 GR; GR value (Cediranib/AZD2171; 0.03162 µM): 1.07 GR; GR value (Cediranib/AZD2171; 0.1 µM): 1.06 GR; GR value (Cediranib/AZD2171; 0.3162 µM): 1.22 GR; GR value (Cediranib/AZD2171; 1 µM): 1.2 GR; GR value (Cediranib/AZD2171; 3.162 µM): 1.08 GR; GR value (Cediranib/AZD2171; 10 µM): 0.941 GR; GR value (Torin2; 0.0001 µM): 1.06 GR; GR value (Torin2; 0.0003162 µM): 1.02 GR; GR value (Torin2; 0.001 µM): 0.884 GR; GR value (Torin2; 0.003162 µM): 0.698 GR; GR value (Torin2; 0.01 µM): 0.222 GR; GR value (Torin2; 0.03162 µM): -0.0323 GR; GR value (Torin2; 0.1 µM): -0.152 GR; GR value (Torin2; 0.3162 µM): -0.239 GR; GR value (Torin2; 1 µM): -0.395 GR; GR value ([1]; 0.001 µM): 1.03 GR; GR value ([1]; 0.003162 µM): 1.08 GR; GR value ([1]; 0.01 µM): 1.01 GR; GR value ([1]; 0.03162 µM): 1.09 GR; GR value ([1]; 0.1 µM): 0.997 GR; GR value ([1]; 0.3162 µM): 0.985 GR; GR value ([1]; 1 µM): 0.932 GR; GR value ([1]; 3.162 µM): 0.808 GR; GR value ([1]; 10 µM): 0.486 GR; GR value ([2]; 0.001 µM): 0.763 GR; GR value ([2]; 0.003162 µM): 0.828 GR; GR value ([2]; 0.01 µM): 0.656 GR; GR value ([2]; 0.03162 µM): 0.622 GR; GR value ([2]; 0.1 µM): 0.545 GR; GR value ([2]; 0.3162 µM): 0.489 GR; GR value ([2]; 1 µM): 0.372 GR; GR value ([2]; 3.162 µM): 0.0322 GR; GR value ([2]; 10 µM): -0.151 GR; GR value (FMF-03-145-1; 0.0001 µM): 0.967 GR; GR value (FMF-03-145-1; 0.0003162 µM): 0.975 GR; GR value (FMF-03-145-1; 0.001 µM): 0.99 GR; GR value (FMF-03-145-1; 0.003162 µM): 0.971 GR; GR value (FMF-03-145-1; 0.01 µM): -0.215 GR; GR value (FMF-03-145-1; 0.03162 µM): -0.0803 GR; GR value (FMF-03-145-1; 0.1 µM): -0.163 GR; GR value ([3]; 0.001 µM): 0.974 GR; GR value ([3]; 0.003162 µM): 0.901 GR; GR value ([3]; 0.01 µM): 0.723 GR; GR value ([3]; 0.03162 µM): 0.933 GR; GR value ([3]; 0.1 µM): 0.894 GR; GR value ([3]; 0.3162 µM): 0.766 GR; GR value ([3]; 1 µM): 0.655 GR; GR value ([3]; 3.162 µM): 0.747 GR; GR value ([3]; 10 µM): 0.392 GR; GR value (Volasertib/BI6727; 0.0001 µM): 1.07 GR; GR value (Volasertib/BI6727; 0.0003162 µM): 0.998 GR; GR value (Volasertib/BI6727; 0.001 µM): 0.912 GR; GR value (Volasertib/BI6727; 0.003162 µM): 0.756 GR; GR value (Volasertib/BI6727; 0.01 µM): -0.409 GR; GR value (Volasertib/BI6727; 0.03162 µM): -0.516 GR; GR value (Volasertib/BI6727; 0.1 µM): -0.458 GR; GR value (Volasertib/BI6727; 0.3162 µM): -0.455 GR; GR value (Volasertib/BI6727; 1 µM): -0.206 GR; GR value (Ceritinib/LDK378; 0.001 µM): 1.01 GR; GR value (Ceritinib/LDK378; 0.003162 µM): 0.971 GR; GR value (Ceritinib/LDK378; 0.01 µM): 1 GR; GR value (Ceritinib/LDK378; 0.03162 µM): 1.01 GR; GR value (Ceritinib/LDK378; 0.1 µM): 0.983 GR; GR value (Ceritinib/LDK378; 0.3162 µM): 0.993 GR; GR value (Ceritinib/LDK378; 1 µM): 0.887 GR; GR value (Ceritinib/LDK378; 3.162 µM): 0.479 GR; GR value ([4]; 0.0001 µM): 0.968 GR; GR value ([4]; 0.0003162 µM): 0.96 GR; GR value ([4]; 0.001 µM): 0.874 GR; GR value ([4]; 0.003162 µM): 0.602 GR; GR value ([4]; 0.01 µM): -0.128 GR; GR value ([4]; 0.03162 µM): -0.147 GR; GR value ([4]; 0.1 µM): -0.161 GR; GR value ([4]; 0.3162 µM): -0.168 GR; GR value ([4]; 1 µM): -0.109 GR; GR value (Vorinostat; 0.001 µM): 0.865 GR; GR value (Vorinostat; 0.003162 µM): 0.936 GR; GR value (Vorinostat; 0.01 µM): 1.02 GR; GR value (Vorinostat; 0.03162 µM): 0.999 GR; GR value (Vorinostat; 0.1 µM): 1.06 GR; GR value (Vorinostat; 0.3162 µM): 0.941 GR; GR value (Vorinostat; 1 µM): 0.551 GR; GR value (Vorinostat; 3.162 µM): -0.345 GR; GR value (Vorinostat; 10 µM): -0.448 GR
